Measured values published in ChEMBL document CHEMBL1201862, “PubChem BioAssay data set” (2004).
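Cultured in 96-well plates, cells were exposed to test compound for 48 hours across five concentrations. Here, GI50 denotes the concentration required for 50% inhibition of growth.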 The source made the active and inactive calls. Cut-off read from the data, not from the text of the source: active = GI50 up to about 1.1 µM and inactive = higher.

Key:
Assay in all cases: DTP human tumour cell line panel, 48 h
A498 = system: A498
A549 = system: A549
ACHN = system: ACHN
BT-549 = system: BT-549
CAKI-1 = system: CAKI-1
COLO 205 = system: COLO 205
DU-145 = system: DU-145
EKVX = system: EKVX
HCT-116 = system: HCT-116
HCT-15 = system: HCT-15
HL-60 = system: HL-60
HT-29 = system: HT-29
IGROV-1 = system: IGROV-1
K562 = system: K562
KM12 = system: KM12
LOX IMVI = system: LOX IMVI
M14 = system: M14
MCF7 = system: MCF7
MDA-MB-231 = system: MDA-MB-231
MDA-MB-435 = system: MDA-MB-435
MDA-N = system: MDA-N
MOLT-4 = system: MOLT-4
Malme-3M = system: Malme-3M
NCI-H226 = system: NCI-H226
NCI-H23 = system: NCI-H23
NCI-H460 = system: NCI-H460
NCI-H522 = system: NCI-H522
NCI/ADR-RES = system: NCI/ADR-RES
OVCAR-3 = system: OVCAR-3
OVCAR-5 = system: OVCAR-5
OVCAR-8 = system: OVCAR-8
PC-3 = system: PC-3
RPMI-8226 = system: RPMI-8226
RXF 393 = system: RXF 393
SF-268 = system: SF-268
SF-295 = system: SF-295
SF-539 = system: SF-539
SK-MEL-2 = system: SK-MEL-2
SK-MEL-5 = system: SK-MEL-5
SK-OV-3 = system: SK-OV-3
SN12C = system: SN12C
SNB-19 = system: SNB-19
SW-620 = system: SW-620
TK-10 = system: TK-10
U-251 = system: U-251
UACC-257 = system: UACC-257
UACC-62 = system: UACC-62
UO-31 = system: UO-31
786-0 = system: 786-0
CCRF-CEM = system: CCRF-CEM
HCC 2998 = system: HCC 2998
HOP-62 = system: HOP-62
HOP-92 = system: HOP-92
Hs-578T = system: Hs-578T
OVCAR-4 = system: OVCAR-4
SK-MEL-28 = system: SK-MEL-28
SNB-75 = system: SNB-75
SR = system: SR
T47D = system: T47D

## CCOc1ccc2nc(-c3ccc(O)cc3)sc2c1
A498
  GI50: 30.4 µM (inactive)
A549
  GI50: > 100 µM (inactive)
ACHN
  GI50: 61.2 µM (inactive)
BT-549
  GI50: 31.1 µM (inactive)
CAKI-1
  GI50: 36.7 µM (inactive)
COLO 205
  GI50: > 100 µM (inactive)
DU-145
  GI50: > 100 µM (inactive)
EKVX
  GI50: 10.3 µM (inactive)
HCT-116
  GI50: 69.3 µM (inactive)
HCT-15
  GI50: 97.3 µM
HL-60
  GI50: 2 µM (inactive)
HT-29
  GI50: 46.6 µM (inactive)
IGROV-1
  GI50: > 100 µM (inactive)
K562
  GI50: > 100 µM (inactive)
KM12
  GI50: 35 µM (inactive)
LOX IMVI
  GI50: > 100 µM (inactive)
M14
  GI50: > 100 µM (inactive)
MCF7
  GI50: > 100 µM (inactive)
MDA-MB-231
  GI50: > 100 µM (inactive)
MDA-MB-435
  GI50: > 100 µM (inactive)
MDA-N
  GI50: > 100 µM (inactive)
MOLT-4
  GI50: > 100 µM (inactive)
Malme-3M
  GI50: > 100 µM (inactive)
NCI-H226
  GI50: > 100 µM (inactive)
NCI-H23
  GI50: 23.5 µM (inactive)
NCI-H460
  GI50: 77.1 µM (inactive)
NCI-H522
  GI50: 4.82 µM (inactive)
NCI/ADR-RES
  GI50: > 100 µM (inactive)
OVCAR-3
  GI50: 46.9 µM (inactive)
OVCAR-5
  GI50: > 100 µM (inactive)
OVCAR-8
  GI50: 48.6 µM (inactive)
PC-3
  GI50: 58.7 µM (inactive)
RPMI-8226
  GI50: 0.106 µM (active)
RXF 393
  GI50: 37 µM (inactive)
SF-268
  GI50: 19.6 µM (inactive)
SF-295
  GI50: 20.1 µM (inactive)
SF-539
  GI50: 45 µM (inactive)
SK-MEL-2
  GI50: 71 µM (inactive)
SK-MEL-5
  GI50: 89.5 µM (inactive)
SK-OV-3
  GI50: 24.2 µM (inactive)
SN12C
  GI50: > 100 µM (inactive)
SNB-19
  GI50: 23.9 µM (inactive)
SW-620
  GI50: > 100 µM (inactive)
TK-10
  GI50: 73.1 µM (inactive)
U-251
  GI50: 43.9 µM (inactive)
UACC-257
  GI50: 0.166 µM (active)
UACC-62
  GI50: 56.9 µM (inactive)
UO-31
  GI50: 17.2 µM (inactive)

## Cc1ccccc1C1CC(=O)CC(c2ccccc2C)C12C(=O)NC(=O)NC2=O (stereo unspecified)
786-0
  GI50: > 100 µM (inactive)
A498
  GI50: > 100 µM (inactive)
A549
  GI50: > 100 µM (inactive)
ACHN
  GI50: > 100 µM (inactive)
BT-549
  GI50: > 100 µM (inactive)
CAKI-1
  GI50: > 100 µM (inactive)
CCRF-CEM
  GI50: > 65.3 µM (inactive)
COLO 205
  GI50: > 100 µM (inactive)
DU-145
  GI50: > 100 µM (inactive)
EKVX
  GI50: > 100 µM (inactive)
HCC 2998
  GI50: > 100 µM (inactive)
HCT-116
  GI50: > 100 µM (inactive)
HCT-15
  GI50: > 100 µM
HL-60
  GI50: 55 µM (inactive)
HOP-62
  GI50: > 100 µM (inactive)
HOP-92
  GI50: 19 µM (inactive)
HT-29
  GI50: > 100 µM (inactive)
Hs-578T
  GI50: > 100 µM (inactive)
IGROV-1
  GI50: 62.5 µM (inactive)
K562
  GI50: > 100 µM (inactive)
KM12
  GI50: > 100 µM (inactive)
LOX IMVI
  GI50: > 100 µM (inactive)
M14
  GI50: > 100 µM (inactive)
MCF7
  GI50: > 73.6 µM (inactive)
MDA-MB-231
  GI50: > 100 µM (inactive)
MDA-MB-435
  GI50: > 77.8 µM (inactive)
MOLT-4
  GI50: > 78.5 µM (inactive)
Malme-3M
  GI50: > 100 µM (inactive)
NCI-H226
  GI50: > 100 µM (inactive)
NCI-H23
  GI50: > 100 µM (inactive)
NCI-H460
  GI50: > 88.5 µM (inactive)
NCI-H522
  GI50: > 75.3 µM (inactive)
NCI/ADR-RES
  GI50: > 100 µM (inactive)
OVCAR-3
  GI50: > 100 µM (inactive)
OVCAR-4
  GI50: > 62.4 µM (inactive)
OVCAR-5
  GI50: > 100 µM (inactive)
OVCAR-8
  GI50: > 100 µM (inactive)
PC-3
  GI50: > 100 µM (inactive)
RPMI-8226
  GI50: 26.9 µM (inactive)
RXF 393
  GI50: > 100 µM (inactive)
SF-268
  GI50: > 100 µM (inactive)
SF-295
  GI50: > 100 µM (inactive)
SF-539
  GI50: > 32.4 µM (inactive)
SK-MEL-28
  GI50: > 100 µM (inactive)
SK-MEL-2
  GI50: > 100 µM (inactive)
SK-MEL-5
  GI50: > 100 µM (inactive)
SK-OV-3
  GI50: > 100 µM (inactive)
SN12C
  GI50: 1.98 µM (inactive)
SNB-19
  GI50: > 100 µM (inactive)
SNB-75
  GI50: > 100 µM (inactive)
SR
  GI50: > 100 µM (inactive)
SW-620
  GI50: > 100 µM (inactive)
T47D
  GI50: > 100 µM (inactive)
TK-10
  GI50: > 100 µM (inactive)
U-251
  GI50: > 100 µM (inactive)
UACC-257
  GI50: > 100 µM (inactive)
UACC-62
  GI50: > 100 µM (inactive)
UO-31
  GI50: > 100 µM (inactive)
